Patent publication US20180271996A1, “COMBINATION THERAPIES OF HER2-TARGETED ANTIBODY-DRUG CONJUGATES” (Mersana Therapeutics, Inc., priority 2017, published 2018)
Non-standard residues stand in square brackets, D forms with d. Residues, ends and D or L forms follow the SMILES beside them. *: point of attachment. Dolaproine = CO[C@@H]([C@@H]1CCCN1)[C@@H](C)C(=O)O; Dil = CC[C@H](C)[C@H](NC)[C@@H](CC(=O)O)OC; NMe2Val = CC(C)[C@@H](C(=O)*)N(C)C; NH(3-hydroxypropyl) = OCCCN*

Experiments:
SKBR3 [1] = assay: ATP release from cells (ENLITEN ATP Assay), SKBR3; type: cell-based; conditions: AF-HPA or XMT-1519 conjugate at 0.5 μM, 24 h, mitoxantrone positive control, compared to untreated (control) cells, FIG. 2
Experimental: (§1) Cancer cells undergoing apoptosis in response to specific anticancer therapies are immunogenic (also known as immunogenic cell death (ICD)), as long as they emit precise DAMPs in a spatiotemporally defined fashion. […] Mitoxantrone, a known strong inducer of ICD and ATP release, was used as a positive control. Briefly, two HER2 expressing cell lines, JIMT-1 (cat. # ACC589, DSMZ Cell Collection) and SKBR3 (cat # ATCC® HTB 30™, American Tissue Culture Collection) were seeded at a density of 7500 cells per well in 24 wells plate, allowed to grow for 24 h, and then treated with AF-HPA or XMT-1519 conjugate at 0.5 μM in 100 μl in […] (Cat#11875-119, Thermo Fisher Scientific) for 24 h. The cells were then pelleted by centrifugation and ATP release was measured using ENLITEN® ATP Assay System (Promega) according to manufacturer's instructions.

NCI-N87 cells = assay: Calreticulin exposure on cell membrane (flow cytometry), NCI-N87; type: cell-based, human; conditions: 2.5 h at 37° C
Experimental: (§2) High HER2-expressing cell lines, NCI-N87 (800,000 HER2 receptors), SKBR3 (700,000 HER2 receptors) and low HER2 expressing cell line HT-29 (16,000 HER2 receptors) were re-suspended at a density of 2×10^6 cells/mL in 100 μl PBS containing 2% FBS. Cells in 96 well plate (Corning® 96 Well Clear Round Bottom Polypropylene Not Treated Microplate cat#3879) were treated with XMT-1519 conjugate or AF-HPA at 1 μM or with mitoxantrone, a strong calreticulin exposure inducer, at 0.01 to 1 μM for 2.5 h at 37° C. Cells were then incubated with anti-calreticulin antibody (clone 16B11.1 Cat: MABT217, Millipore Sigma, 1:200) in ice cold PBS containing 2% FBS for 1 h on ice, washed twice with cold PBS containing 2% and then incubated for 20 min on ice with a secondary antibody (Alexa 647-anti Mouse IgG (H+L) 1:800, Thermo Fisher Scientific Cat#:A32728) in ice cold PBS containing 2% FBS. Thereafter the cells were stained with Annexin V (Pacific Blue™ cat# A35122, Thermo Fisher Scientific) according to manufacturer's instructions to identify apoptotic cell population. Necrotic cell population was labeled by propidium iodide (cat# P3566 Thermo Fisher Scientific) at 1:1000 dilution. Cells were then analyzed by flow cytometry using MACSQuant® Analyzer 10. Apoptotic and necrotic cell populations were excluded and only live cells for measured for calreticulin exposure.

JIMT-1 = assay: ATP release from cells (ENLITEN ATP Assay), JIMT-1; type: cell-based, human; conditions: AF-HPA or XMT-1519 conjugate at 0.5 μM, 24 h, mitoxantrone positive control, compared to untreated (control) cells, FIG. 2
Experimental: as §1

[2] = tested on: TumorGraft™ model of non-small cell lung carcinoma (CTG-0860); assay: Antitumor activity in low passage TumorGraft model of non-small cell lung carcinoma in humanized mice (CTG-0860); type: in vivo; conditions: per Table 1: XMT-1519 conjugate 1.0 mg/kg IV q7dx3; pembrolizumab 2.5 mg/kg IP q5dx6; n=5 per group; FIG. 1
Experimental: Unmatched human leukocyte antigen (HLA) humanized CD34+ engrafted immune compromised female mice (Taconic NOG) were subcutaneously implanted unilaterally on the left flank with tumor fragments (n=5 for each group and two additional mice for tumor infiltration lymphocytes measurement for the test compounds only). […] Tumor size was measured at the times indicated in FIG. 1 using digital calipers. Tumor volume was calculated and was used to determine the tumor growth inhibition. Control mice were sacrificed when tumors reached a size of 1500 mm^3. Tumor volumes are reported as the mean±SEM for each group.
When tumors reached a size of 1500 mm^3 in control mice, they were sacrificed as well as two mice from each treatment groups, and tumor infiltration lymphocytes were analyzed. At the study endpoint (day 49) all the surviving mice were sacrificed and tumor infiltration lymphocytes were analyzed. Tumors were dissociated and analyzed for tumor infiltrating lymphocytes by flow cytometry for the following markers: human CD45 infiltrating lymphocytes, hCD3 (T cells), hCD4 (helper T cells), hCD8 (cytotoxic T cells), hCD19 (B cells), T cells activation and proliferation—hCD25.

SKBR3 [3] = assay: Calreticulin exposure on cell membrane (flow cytometry), SKBR3; type: cell-based; conditions: SKBR3 (700,000 HER2 receptors); 1 μM, 2.5 h at 37° C; FIG. 3
Experimental: as §2

[4] = tested on: 4T1-7bb7 cells (human HER2-expressing mouse 4T1 breast cancer); assay: Tumor response in 4T1-7bb7 syngeneic mouse model (Example 5); type: in vivo, Balb/c mice; conditions: per Table 2: XMT-1519 conjugate 4.0 mg/kg IV qwx2; Kadcyla 15.0 mg/kg IV qwx2; anti-PD1 mAb 10.0 mg/kg IP days 0, 2, 4, 7, 10; n=13; FIG. 5
Experimental: Tumor growth inhibition (% TGI) was defined as the percent difference in median tumor volumes (MTVs) between treated and control groups.
Treatment efficacy was determined from the incidence and magnitude of regression responses of the tumor size observed during the study. Treatment may cause partial regression (PR) or complete regression (CR) of the tumor in an animal. In a PR response, the tumor volume was 50% or less of its Day 1 volume for three consecutive measurements during the course of the study, and equal to or greater than 13.5 mm^3 for one or more of these three measurements. In a CR response, the tumor volume was less than 13.5 mm^3 for three consecutive measurements during the course of the study. An animal with a CR response at the termination of a study was additionally classified as a tumor-free survivor (TFS). Animals were monitored for regression responses.
Six to eight week old female, Balb/c mice (Jackson Labs, Bar Harbor, Me.) were subcutaneously implanted unilaterally on the left flank with 4×10^4/mouse 4T1-7bb7 cells (n=13 mice/group). […] Tumor sizes were measured twice a week using digital calipers, and average tumor volume was calculated to determine tumor growth inhibition. […]

HT-29 = assay: Calreticulin exposure on cell membrane (flow cytometry), HT-29; type: cell-based; conditions: HT-29 (16,000 HER2 receptors, low HER2); 1 μM, 2.5 h at 37° C; FIG. 3
Experimental: as §2

human HER2 = human HER2 (Homo sapiens, UniProt P04626); assay: Inhibition of HER2 functional activity in vitro
Experimental: The HER2 antibodies disclosed herein serve to modulate, block, inhibit, reduce, antagonize, neutralize or otherwise interfere with the functional activity of HER2. HER2. Functional activities of HER2 include for example, modulation of PI3K-Akt pathway activity. […] PI3K-Akt pathway activity is assessed using any art-recognized method for detecting PI3K-Akt pathway activity, including, but not limited to detecting levels of phosphorylated Akt in the presence and absence of an antibody or antigen binding fragment disclosed herein.
The HER2 antibodies are considered to completely modulate, block, inhibit, reduce, antagonize, neutralize or otherwise interfere with HER2 functional activity when the level of HER2 functional activity in the presence of the HER2 antibody is decreased by at least 95%, e.g., by 96%, 97%, 98%, 99% or 100% as compared to the level of HER2 functional activity in the absence of binding with a HER2 antibody described herein. The HER2 antibodies are considered to partially modulate, block, inhibit, reduce, antagonize, neutralize or otherwise interfere with HER2 functional activity when the level of HER2 activity in the presence of the HER2 antibody is decreased by less than 95%, e.g., 10%, 20%, 25%, 30%, 40%, 50%, 60%, 75%, 80%, 85% or 90% as compared to the level of HER2 activity in the absence of binding with a HER2 antibody described herein.

[5] = NCI-N87 (800,000 HER2 receptors), 1 μM, live cells only, FIG. 3

Molecule | ATP release (SKBR3 [1]) | calreticulin exposure on cell membrane (NCI-N87 cells; NCI-N87, mitoxantrone at 0.01 to 1 μM, FIG. 3 panel (a)) | ATP release (JIMT-1) | tumor response (tumor volume / tumor growth inhibition) [2] | calreticulin exposure on cell membrane (SKBR3 [3]) | calreticulin exposure on cell membrane (NCI-N87 cells; [5]) | tumor response (tumor growth inhibition / anti-tumor efficacy) [4] | calreticulin exposure on cell membrane (HT-29) | functional activity of HER2 (human HER2)
O=C1c2c(O)ccc(O)c2C(=O)c2c(NCCNCCO)ccc(NCCNCCO)c21 [mitoxantrone, reference compound] | ATP was released | dose dependent calreticulin exposure | ATP was released | – | – | – | – | – | –
XMT 1519-(EG2-MI-(7.7 kDa PHF-BA-(AF-HPA-Ala))) [XMT-1519 conjugate] | ATP was released | – | ATP was released | decrease in tumor volume | induced calreticulin exposure | induced calreticulin exposure | significant inhibition of tumor growth | induced calreticulin exposure | –
XMT 1519: fully human HER2 monoclonal antibody, heavy chain SEQ ID NO: 5, light chain SEQ ID NO: 6 | – | – | – | – | – | – | – | – | inhibit the functional activity of HER2 in vitro
CC[C@H](C)[C@@H]([C@@H](CC(=O)N1CCC[C@H]1[C@H](OC)[C@@H](C)C(=O)N[C@@H](Cc1ccccc1)C(=O)NCCCO)OC)N(C)C(=O)[C@@H](NC(=O)[C@H](C(C)C)N(C)C)C(C)C [AF-HPA, Auristatin F-hydroxypropyl amide] (NMe2Val-V[Dil][Dolaproine]F-{NH(3-hydroxypropyl)}) | ATP was released | – | ATP was released | – | – | induced calreticulin exposure | – | – | –
